Experimental data from patent publication US5965568A, “Composition for inhibiting production or secretion of amyloid β protein to treat Down's syndrome” (priority 1995, dated 1999).

Experiments:
[1] = tested on: Aβ production or secretion in IMR-32 cells; assay: Inhibitory activity against Aβ production or secretion in human neuroblastoma IMR-32 cells (EIA); type: cell-based; details: 24 hours, vs control group, mean of 4 wells, read-out: inhibition of Aβ production or secretion, based on the control group
Source text: (§1) Studies on Aβ production or secretion in human-derived neurons and gliocytes are very interesting because of the relation to Alzheimer's dementia. However, human primary culture neurons and gliocytes cannot generally be used for experimental materials. IMR-32 cells were therefore used. The IMR-32 cells are human-derived neuroblastoma cells, and produce and secrete Aβ in the culture supernatant (Shinkei Kagaku (Neurochemistry) 33, 232 (1994)). In addition, Dr. Hironobu Suzuki et al. (Science, 264, 1336 (1994)) had developed an enzyme immunoassay method that can determine and distinguish between Aβ of 40 amino acids (Aβ (1-40)) and Aβ of 42 amino acids (Aβ (1-42)). This method was used to determine inhibitory activity of the test compound against Aβ production or secretion.
(§2) Human neuroblastoma IMR-32 cells were purchased from American Type Culture Collection (ATCC). Dulbecco's modified Eagle's medium (DMEM) was purchased from Nissui Pharmaceutical Co., Ltd., Japan. Fetal calf serum (hereinaftersometimes abbreviated as FCS) and a mixed solution of penicillin (5000 U/ml) and streptomycin (5 mg/ml) were purchased from Biowhittaker Inc. Phosphate buffered saline (PBS) was purchased from Flow Laboratories. Block Ace was purchased from Dainippon Pharmaceutical Co., Ltd. Bovine serum albumin (BSA) was purchased from Sigma. Flasks for culture and 48-well multi well plates were those manufactured by Falcon and Coster Corporation, respectively. Standard samples of Aβ (1-40) and Aβ (1-42) were purchased from Bachem. The other reagents used were commercially available highest quality goods.
IMR-32 cells were cultured at 37° C. in 10% carbon dioxide/90% air using 10% FCS/DMEM culture solution in a flask (Falcon, 750 ml) until the confluent growth of the cells was obtained. Then, the cells were inoculated in a 48-well multi well plate at a density of 2.5×10^5 cells/well, and cultured for 5 days. The culture solution was sucked off, and then DMEM/0.5% BSA (0.5 ml for the assay of Aβ (1-40) or 0.25 ml for the assay of Aβ (1-42)) was added. The cells were cultured for 24 hours.
In each case, the primary antibody was BAN-50 antibody that recognizes the N-terminal region of Aβ (1-40). BA-27 is an antibody prepared using Aβ (1-40) as an antigen, and recognizes the C-terminal region of Aβ (1-40). On the other hand, BC-05 antibody is an antibody prepared using Aβ (35-43) as an antigen, and recognizes the C-terminal region of Aβ (1-42) but not Aβ (1-40). Therefore, Aβ (1-40) can be assayed with a combination of BAN-50 antibody with BA-27 antibody, and Aβ (1-42) can be assayed with a combination of BAN-50 antibody with BC-05 antibody. […]

[2] = tested on: Aβ (1-42) production and secretion in IMR-32 cells; assay: Inhibitory activity against Aβ (1-42) production or secretion in human neuroblastoma IMR-32 cells (EIA, BAN-50/BC-05); type: cell-based; details: not a significant change
Source text: as §1
as §2, with “Flasks for culture and 48-well multi well plates were those manufactured by Falcon and Coster Corporation, respectively. Standard samples of Aβ (1-40) and Aβ (1-42) were purchased from Bachem. The other reagents used were commercially available highest quality goods.” left out

[3] = has been used as a medicament; cited from earlier work
[4] = tested on: IMR-32 cells; assay: Evaluation of the cytotoxicity, lactate dehydrogenase (LDH) method, IMR-32 cells; type: cell-based, human; details: 1×10^-4 (maximum concentration used)
Description: IMR-32 cells were cultured at 37° C. in 10% carbon dioxide/90% air using 10% FCS/DMEM culture solution in a flask (Falcon, 750 ml) until the confluent growth of the cells was obtained. Then, the cells were inoculated in a 48-well multi well plate at a density of 2.5×10^5 cells/well, and cultured for 5 days. […] The cells were cultured for 24 hours. […] The culture supernatant (10 μl) obtained after the assay of Aβ (1-40) was sampled, and the amount of LDH released from the cells was determined with a LDH assay kit (LDH C-II manufactured by Wako Pure Chemical Industries, Ltd.). Four wells were used per dose of the drug. The value in the data was represented as a ratio (%) to the control group. Dunnett's t test was used for the statistical analysis.

[5] = tested on: IMR-32 cells; assay: Evaluation of the cytotoxicity, MTT method, IMR-32 cells; type: cell-based, human; details: 1×10^-4 (maximum concentration used)
Description: The culture supernatant was sampled, and DMEM culture solution (500 μl) containing 1.2 mM MTT {3-(4,5dimethyl-2-thiazolyl)-2,5-diphenyl-2H-tetrazolium bromide} was added. The reaction was carried out for 1 hour at 37° C., and then an equal amount of 10% sodium dodecyl sulfate solution was added. The mixture was gently stirred overnight to dissolve the resulting formazan, and then subjected to colorimetry (wavelength: 550 nm) with a plate reader.
Four wells were used per dose of the drug. The value in the data was represented as a ratio (%) to the control group. Dunnett's t test was used for the statistical analysis.

[6] = tested on: Aβ (1-40) production and secretion in guinea pig primary culture neurons; assay: Inhibitory activity against Aβ (1-40) production and secretion in guinea pig primary culture neurons (EIA); type: cell-based; details: 3×10^-5 M, 24 hours
Source text: Aβ (1-40) and Aβ (1-42) in the culture supernatant were quantified in the same manner as that described in Experiment 1.

[7] = tested on: guinea pig primary culture neurons
Description: Fetal brains were taken out from guinea pigs (SLC-Hartley) that was 28 days pregnant. The cerebral cortex and hippocampus were taken out under a stereoscopic microscope, and, after removing the meninges, were treated in Hank's Balanced Salt Solution (20 ml) containing 0.25% trypsin/0.01% DNase I for 10 minutes. FCS was added to stop the reaction, and the mixture was centrifuged. The cells were dispersed in DMEM culture solution (DMEM/N2 culture solution) containing insulin 5 μg/ml, transferrin 100 μg/ml, progesterone 20 nM, putrescine 100 μM and sodium selenite 30 nM. The dispersion was filtered through double lens paper, and the filtrate was centrifuged to collect the cells. The cells were dispersed in DMEM/N2 culture solution, and inoculated in a 24-well plate at a density of 1×10^-6 cells/well. On the second day from the beginning of the cultivation, the culture solution was replaced with DMEM/N2 culture solution containing cytosine arabinoside (1 μM). After the treatment for 3 days, the culture solution was replaced with DMEM/N2 culture solution. Thereafter, the culture solution was replaced every 2 to 3 days. […] After the culture supernatant was collected, DMEM culture solution (300 μl) containing 1.2 mM MTT was added. After the reaction was carried out at 37° C. for 1 hour, an equal amount of 10% sodium dodecyl sulfate solution was added.

[8] = tested on: secreted βAPP; details: in vitro various cells; cited from earlier work
[9] = tested on: Aβ production or secretion; details: in vitro various cells; cited from earlier work

Row | SMILES | inhibition at 100 µM ([1]; 1×10^-4 M) | inhibition at 10 µM ([1]; 1×10^-5 M) | inhibition at 30 µM ([1]; 3×10^-5 M) | inhibition at 3 µM ([1]; 3×10^-6 M) | Aβ (1-42) production and secretion compared to the control group ([2]; 1×10^-5 M) | Aβ (1-42) production and secretion compared to the control group ([2]; 3×10^-6 M) | toxic problems in use as a medicament [3] | cytotoxicity (LDH activity in the culture supernatant) [4] | cytotoxicity (formazan formed from MTT) [5] | production or secretion of Aβ (1-40) [6] | cytotoxicity (MTT) [7] | secreted βAPP [8] | Aβ production or secretion [9]
1 | CCOC(=O)C1=C[C@]2(CC)CCCN3CCc4c(n1c1ccccc41)[C@@H]32 [Vinpocetine, vinpocetine] | 45% | 30% | 40% | 10% | showed a tendency to decrease | showed a tendency to decrease | no toxic problems | only slight cytotoxicity | only slight cytotoxicity | inhibited production or secretion of Aβ (1-40) | without any cytotoxicity | – | –
2 | C[N+](C)(C)CCOC(N)=O [carbacol] | – | – | – | – | – | – | – | – | – | – | – | increase the secreted βAPP | inhibit Aβ production or secretion
